Test results as given in patent US11207277B2, “Methods of treating diseases associated with high-fat diet and vitamin a deficiency using retinoic acid receptor agonists” (Cornell University, priority 2013, dated 2021).
Entries after “also recorded” stand apart in the source; their conditions may differ.

Key:
Type in all cases: in vivo
[1] = test system: α-SMA; experiment: α-SMA immunofluorescence of liver sections (hepatic stellate cell activation); conditions: HF diet mice + AC261066 or CD1530, vs HF-vehicle
Source text: (§1) WT male C57/BL6 male mice were maintained on either a standard laboratory chow-fed diet (CFD) with 13% kcal fat, (diet #5053, Lab Diet, Inc, St. Louis, Mo.) or a high fat, western style diet (HFD) with 60% kcals from fat, (diet #58126, Lab Diet, Inc., St. Louis, Mo.) for 4 months. One month after the start of the high fat diet treatment, the high fat diet group was further split into 2 groups for 3 months: i) high fat diet and the drinking water containing 1% DMSO; ii) high fat diet and the drinking water containing 1.5 mg/100 ml AC261066, a specific RARβ agonist. Then mice were sacrificed by cervical dislocation. Blood and various tissue samples were harvested.
Staining. Fresh mouse liver samples were embedded in optimal cutting temperature (OCT) medium and immediately frozen to −70 centigrade. Cryosections were then fixed in 4% formaldehyde for 1 hr at room temp. Slides were then rinsed three times in deionized water (dH2O) for 30 s, followed by treatment with 0.5% Triton X-100 in PBS for 5 min. Sections were then washed three times with PBS for 5 min. Samples were with incubated 2% bovine serum albumin (BSA) for 30 min at room temperature to block for unspecific antibody binding. Following blocking, sections were washed three times in PBS and incubated with mouse monoclonal antibody against α-SMA (1:500) (Dako, Inc) for 24 h at 4° C. After 24 h sections were washed three times in PB and incubated with Alexa-Flour-488 anti-mouse secondary anti-body (1:500) (Invitrogen, Inc) for 30 min at room temperature. Sections were then washed three times in PBS and incubated with working strength oil-red O solution for 30 minutes at room temperature. Sections were then rinsed for 30 minutes under running tap water and cover-slipped with Vectashield hard mount plus DAPI (Vector Labs, Inc).

[2] = test system: renal lipids; experiment: Oil red O staining of kidney sections; conditions: HF diet mice + AC261066 vs HF vehicle
[3] = test system: all-trans retinol; experiment: HPLC analysis of serum retinol; conditions: CF, HF and HF+AC261066 fed mice
Source text: as §1
The frozen liver tissue samples (˜100 mg) were homogenized in 500 μl cold phosphate-buffered saline (PBS). In addition, 100 μl serum was diluted in cold PBS to total volume of 500 μl. Retinyl acetate was added to each sample before the retinoid extraction for the calculation of extraction efficiency. The retinoids were extracted into 350 μl of organic solution (acetonitrile/butanol, 50:50, v/v) in the dark. The high performance liquid chromatography (HPLC) was performed using a Waters Millennium system (Waters). […] The amounts of retinoids were calculated from the areas under the peaks detected at the wave-length of 325 nm. […]

CCCCOCCOc1nc(-c2ccc(C(=O)O)c(F)c2)sc1C [AC261066]
α-SMA positive staining in liver (HSC activation) [1]: diminished activation of hepatic stellate cells; also recorded: decreased expression of α-SMA; also recorded: decreased intensity and regions of α-SMA positive staining
α-SMA positive staining in liver (HSC activation) ([1]; listed as AC261011): α-SMA protein is decreased
kidney lipid accumulation (oil red O) [2]: comparably less oil red o positive areas
serum levels of all-trans retinol [3]: not different
